Experiments:
[1] = molecular target: T1, GDP-loaded KRAS (1-169) G12C, C51S, C80L, C118S (Homo sapiens, UniProt P01116, C118S/C51S/C80L/G12C); assay: Mass Spectrometry Reactivity Assay (MSRA): covalent adduct of compound and KRAS G12C, Percent Modification; type: binding; details: for MSRA (% modification) 10 μM 0.50 hr / MSRA (% modification) 10 μM 0.25 hr: 10 μM compound
T1 construct: GDP-loaded KRAS (1-169) G12C, C51S, C80L, C118S
In short: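 Covalent labelling is measured by intact mass: deconvoluted modified and unmodified peak intensities yield percent modification. Compound, usually 5 μM or 10 μM final, reacts at room temperature with 5 μM GDP-bound KRAS G12C (1-169, C51S/C80L/C118S) in Hepes pH 7.5/NaCl/glycerol, sampled at 1, 15, 30, 60 min.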

KRAS G12C = KRAS G12C (Homo sapiens, UniProt P01116, G12C); assay: Cell Activity Assay: accumulation of GDP-bound KRAS G12C in MIAPaCa-2 cells (Raf-1 RBD capture, MSD readout); type: cell-based; set-up: endogenous in cells; host or cells: MIAPaCa-2; details: 6 hours, assay limit is 30.00
In short: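 IC50 came from a 4-parameter fit of Ras signal normalized between DMSO and full-inhibition controls. Readout: lysate GTP-Ras bound to immobilized Raf-1 RBD, quantified with pan-Ras antibody and MSD electrochemiluminescence. Lysates derived from MIAPaCa-2 cells treated 6 h with serially diluted compound, 0.3% DMSO.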

Row | Compound | MSRA (% modification) 5.0 μM 0.017 hr ([1]; 5.0 μM compound) | IC50 (KRAS G12C) | MSRA (% modification) 10 μM 0.50 hr [1] | MSRA (% modification) 5.0 μM 0.25 hr ([1]; 5.0 μM compound, 0.25 hr) | MSRA (% modification) 10 μM 0.25 hr ([1]; 0.25 hr)
1 | C=CC(=O)N1CCN(c2nc(O[C@@H]3CN(C)C[C@H]3OC)nc3c(Oc4c(Cl)c(Cl)cc5[nH]ncc45)nc(Cl)cc23)CC1 [Example 29G, 1-[4-(6-chloro-8-[(5,6-dichloro-1H-indazol-4-yl)oxy]-2-{[(3R,4R)-4-methoxy-1-methylpyrrolidin-3-yl]oxy}pyrido[3,4-d]pyrimidin-4-yl)piperazin-1-yl]prop-2-en-1-one] | 82% | 0.005 µM |  |  | 
2 | C=CC(=O)N1CCN(c2ncnc3c(Oc4c(C)c(Cl)cc5[nH]ncc45)nc(Cl)cc23)CC1 [Example 31A, 1-(4-{6-chloro-8-[(6-chloro-5-methyl-1H-indazol-4-yl)oxy]pyrido[3,4-d]pyrimidin-4-yl}piperazin-1-yl)prop-2-en-1-one] |  | 0.171 µM | 79% |  | 
3 | C=CC(=O)N1CCN(c2nc(Oc3cccc4c3CCN(CC)C4)nc3c(Oc4c(C)ccc5[nH]ncc45)nccc23)CC1 [Example 31I, 1-(4-{2-[(2-ethyl-1,2,3,4-tetrahydro-isoquinolin-5-yl)oxy]-8-[(5-methyl-1H-indazol-4-yl)oxy]pyrido [3,4-d]pyrimidin-4-yl}piperazin-1-yl)prop-2-en-1-one] | 31% | 0.041 µM |  |  | 
4 | C=CC(=O)N1CCN(c2ncnc3c(Oc4c(C)c(Cl)cc5[nH]ncc45)nc(C#N)cc23)C[C@@H]1C [Example 33A, 4-[(3S)-4-acryloyl-3-methylpiperazin-1-yl]-8-[(6-chloro-5-methyl-1H-indazol-4-yl)oxy]pyrido[3,4-d]pyrimidine-6-carbonitrile] |  | > 30 µM | 34% |  | 
5 | C=CC(=O)N1CCN(c2nc(O[C@@H]3CN(C)C[C@H]3OC)nc3c(Oc4c(C)ccc5[nH]ncc45)nc(Cl)cc23)CC1 [Example 35G, 1-[4-(6-chloro-2-{[(3R,4R)-4-methoxy-1-methylpyrrolidin-3-yl]oxy}-8-[(5-methyl-1H-indazol-4-yl)oxy]pyrido[3,4-d]pyrimidin-4-yl)piperazin-1-yl]prop-2-en-1-one] | 75% | 0.027 µM |  |  | 
6 | C=CC(=O)N1CCN(c2nc(OC3CN(C)CC34CC4)nc3c(Oc4c(Cl)c(F)cc5[nH]ncc45)nc(Cl)cc23)CC1 (centres unmarked) [Example 36G, 1-(4-{6-chloro-8-[(5-chloro-6-fluoro-1H-indazol-4-yl)oxy]-2-[(5-methyl-5-azaspiro[2.4]heptan-7-yl)oxy]pyrido[3,4-d]pyrimidin-4-yl}piperazin-1-yl)prop-2-en-1-one] | 35% | 0.109 µM |  |  | 
7 | C=CC(=O)N1CCN(c2nc(O[C@@H]3CN(C)C[C@H]3O)nc3c(Oc4c(Cl)c(F)cc5[nH]ncc45)nc(Cl)cc23)CC1 [Example 37G, 1-[4-(6-chloro-8-[(5-chloro-6-fluoro-1H-indazol-4-yl)oxy]-2-{[(3R,4R)-4-hydroxy-1-methylpyrrolidin-3-yl]oxy}pyrido[3,4-d]pyrimidin-4-yl)piperazin-1-yl]prop-2-en-1-one] | 37% | 0.338 µM |  |  | 

The remaining molecules from weak to strong by IC50 (KRAS G12C), led by results:

Row | MSRA (% modification) 5.0 μM 0.017 hr ([1]; 5.0 μM compound) | IC50 (KRAS G12C) | MSRA (% modification) 10 μM 0.50 hr [1] | MSRA (% modification) 5.0 μM 0.25 hr ([1]; 5.0 μM compound, 0.25 hr) | MSRA (% modification) 10 μM 0.25 hr ([1]; 0.25 hr) | Compound
8 |  | 4.7 µM |  |  | 31% | C=CC(=O)N1CCN(c2ncnc3c(Oc4c(Cl)c(F)cc5[nH]ncc45)nc(Cl)cc23)C[C@@H]1C [Example 36A, 1-[(2S)-4-{6-chloro-8-[(5-chloro-6-fluoro-1H-indazol-4-yl)oxy]pyrido[3,4-d]pyrimidin-4-yl}-2-methylpiperazin-1-yl]prop-2-en-1-one]
9 |  | 4.26 µM |  |  | 64% | C=CC(=O)N1C[C@H](C)N(c2ncnc3c(Oc4c(Cl)c(F)cc5[nH]ncc45)nc(Cl)cc23)C[C@H]1C [Example 35A, 1-[(2R,5S)-4-{6-chloro-8-[(5-chloro-6-fluoro-1H-indazol-4-yl)oxy]pyrido[3,4-d]pyrimidin-4-yl}-2,5-dimethylpiperazin-1-yl]prop-2-en-1-one]
10 |  | 1.29 µM |  | 19% | 47% | C=CC(=O)N1CCN(c2ncnc3c(Oc4c(F)c(Cl)cc5[nH]ncc45)nc(Cl)cc23)CC1 [Example 34A, 1-(4-{6-chloro-8-[(6-chloro-5-fluoro-1H-indazol-4-yl)oxy]pyrido[3,4-d]pyrimidin-4-yl}piperazin-1-yl)prop-2-en-1-one]
11 | 52% | 0.935 µM |  |  |  | C=CC(=O)N1CCN(c2nc(O[C@@H]3CN(C)C[C@H]3OC)nc3c(Oc4c(Cl)c(F)cc5[nH]ncc45)nccc23)[C@H](C)C1 [Example 34I, 1-[(3R)-4-(8-[(5-chloro-6-fluoro-1H-indazol-4-yl)oxy]-2-{[(3R,4R)-4-methoxy-1-methyl-pyrrolidin-3-yl]oxy}pyrido [3,4-d]pyrimidin-4-yl)-3-methyl-piperazin-1-yl]prop-2-en-1-one]
12 |  | 0.681 µM | 74% |  |  | C=CC(=O)N1CCN(c2ncnc3c(Oc4c(Cl)c(F)cc5[nH]ncc45)nc(C#N)cc23)CC1 [Example 32A, 4-(4-acryloylpiperazin-1-yl)-8-[(5-chloro-6-fluoro-1H-indazol-4-yl)oxy]pyrido[3,4-d]pyrimidine-6-carbonitrile]
13 |  | 0.622 µM |  |  | 63% | C=CC(=O)N1CCN(c2ncnc3c(Oc4c(Cl)c(F)cc5[nH]ncc45)nc(Cl)cc23)C[C@H]1C [Example 37A, 1-[(2R)-4-{6-chloro-8-[(5-chloro-6-fluoro-1H-indazol-4-yl)oxy]pyrido[3,4-d]pyrimidin-4-yl}-2-methylpiperazin-1-yl]prop-2-en-1-one]
14 |  | 0.247 µM | 67% |  |  | C=CC(=O)N1CCN(c2ncnc3c(Oc4c(Cl)c(Cl)cc5[nH]ncc45)nc(Cl)cc23)CC1 [Example 30A, 1-(4-{6-chloro-8-[(5,6-dichloro-1H-indazol-4-yl)oxy]pyrido[3,4-d]pyrimidin-4-yl}piperazin-1-yl)prop-2-en-1-one]
15 | 24% | 0.155 µM |  |  |  | C=CC(=O)N1CCN(c2nc(O[C@@H]3CN(C)C[C@H]3OC)nc3c(Oc4c(Cl)c(F)cc5[nH]ncc45)nccc23)C[C@H]1C [Example 35I, 1-[(2R)-4-(8-[(5-chloro-6-fluoro-1H-indazol-4-yl)oxy]-2-{[(3R,4R)-4-methoxy-1-methyl-pyrrolidin-3-yl]oxy}pyrido [3,4-d]pyrimidin-4-yl)-2-methyl-piperazin-1-yl]prop-2-en-1-one]
16 | 74% | 0.039 µM |  |  |  | C=CC(=O)N1CCN(c2nc(O[C@@H]3CN(C)C[C@H]3OC)nc3c(Oc4c(Cl)c(F)cc5[nH]ncc45)nccc23)[C@@H](C)C1 [Example 33I, 1-[(3S)-4-(8-[(5-chloro-6-fluoro-1H-indazol-4-yl)oxy]-2-{[(3R,4R)-4-methoxy-1-methyl-pyrrolidin-3-yl]oxy}pyrido [3,4-d]pyrimidin-4-yl)-3-methyl-piperazin-1-yl]prop-2-en-1-one]
17 | 45% | 0.03 µM |  |  |  | C=CC(=O)N1CCN(c2nc(Oc3cccc4c3CCN(C(C)C)C4)nc3c(Oc4c(C)ccc5[nH]ncc45)nccc23)CC1 [Example 30I, 1-[4-(8-[(5-methyl-1H-indazol-4-yl)oxy]-2-{[2-(propan-2-yl)-1,2,3,4-tetrahydro-isoquinolin-5-yl]oxy}pyrido [3,4-d]pyrimidin-4-yl)piperazin-1-yl]prop-2-en-1-one]
